Source: US7605135B2 (priority 2003, dated 2009)
Where two headings read alike, the source gives them in different places.

What was measured:
HIV-1 = settings: cited from earlier work
[1] = human, in vivo; cited from earlier work
SARS-CoV = settings: fRhK4 cell line; for EC50 (μg/ml) at 48 hrs / EC50 (μg/ml) at 72 hrs: 10 strains of SARS-CoV, inhibition of cytopathic effect to 50% of control
[2] = in vivo, cited from earlier work

In the case of baicalin, the Antiviral effect (HIV-1) is given as “Inhibition of HIV-1 [Kitamura K et al., “Baicalin: an inhibitor of HIV-1”, the “Serum level (after intravenous administration) Cmax” value [1] is given as 74 and the “EC50 (μg/ml) at 48 hrs” value (SARS-CoV) is given as 12.5 to 25 µg/mL. The “EC50 (μg/ml) at 48 hrs” value (SARS-CoV; listed as baicalin) was 12.5 to 25 µg/mL, the “EC50 (μg/ml) at 72 hrs” value (SARS-CoV) was 25 to 50 µg/mL and the “EC50 (μg/ml) at 72 hrs” value (SARS-CoV; listed as baicalin) was 25 to 50 µg/mL. The “SI = CC50/EC50 at 48 hrs” value (SARS-CoV; selectivity index) was >8, the “Serum level (after oral administration) Cmax” value ([2]; human, po) was “Cmax = 60 ng/mL (189.8 mg/person, in human). The amount (i.e., 189.8 mg/” and the “Half life (in humans)” value ([2]; human) was ~3 hrs in humans Muto R et al., “The chemical structure of new substance. For the same substance, the “Serum concentration after oral dose” value ([2]; po) was 470 ng/mL and the “CC50” value (fRhK4 cell line) was >100 µg/mL.
